According to article PMC9356065, “Novel psoralen derivatives as anti-breast cancer agents and their light-activated cytotoxicity against HER2 positive breast cancer cells” (Scientific Reports, 2022):
Structures can show the parent of a compound that is named as a salt. Where two headings read alike, the source gives them in different places. Each block holds one compound with its values, some of them ahead of it.

Assays:
MDA-MB-231 [1] = assay: Dark and light-activated (UVA) cytotoxicity, MTT; assay type: cell-based; conditions: Homo sapiens, dark, HER2− breast cancer
SK-BR-3 [2] = assay: Dark and light-activated (UVA) cytotoxicity, MTT; assay type: cell-based; conditions: Homo sapiens, dark, HER2+ breast cancer
[3] = Scavenging of diphenyl-picryl-hydrazyl radicals (DPPH); conditions: screening concentration 250 µM
Text: 1. Chemoprevention activity

[4] = system: differentiated HL-60 cells; assay: Inhibition of TPA-induced superoxide anion radical generation (HL-60 Antioxidant); assay type: cell-based, human; conditions: Homo sapiens, HL-60; screening concentration 100 µM; read-out: HL-60 Antiox. %Inh
Text: Inhibition of 12-O-tetradecanoylphorbol-13-acetate (TPA)-induced superoxide anion radical generation in differentiated HL-60 cells (HL-60 Antioxidant) TPA-induced superoxide anion radical formation was detected in differentiated HL-60 cells by photometric determination of cytochrome c reduction as previously described by Gerhäuser et al., 2003.ii Superoxide dismutase (SOD;15U) was a positive control. […]

SK-BR-3 [5] = assay: Dark and light-activated (UVA) cytotoxicity, MTT; assay type: cell-based, human; conditions: Homo sapiens, SK-BR-3, light or radiation study; irradiation with UVA (2.0 J cm^−2); HER2+ breast cancer
Method: (§1) The selected compounds were screened for their IC50 values against both HER2+ breast cancer (SK-BR-3), and HER2− breast cancer (MDA-MB-231) in both dark and light-activated conditions (Table 2). Additionally, a negative control study was also performed with SK-BR-3 and MDA-MB-231 cells in the absence of tested compound under UVA irradiation (See Fig S7., Supporting Information).
(§2) SK-BR-3 and MDA-MB-231 cells were seeded into 96-well cell culture plates at 5 × 10^3 cells/well and incubated for 24 h at 37 °C under 5% CO2. After that, the cells were treated with 50 μM of psoralen derivatives in DMEM with 10% FBS and the cells were continued incubation for another 4 h. After incubation, the cells were washed with PBS (3 times) and then irradiated by a 365 nm lamp with the light intensity of 2.0 J cm^−2 for 12.5 min before re-incubation for another 72 h. After incubation, the cell was treated with methylthiazolyldiphenyl-tetrazolium bromide (MTT reagent 200 μL, 0.5 mg mL^−1, Sigma-Aldrich) for 2 h. After reagent removal, DMSO was added to dissolve the formazan product and the cell viabilities were determined through UV–Vis absorption of the resulting formazan at wavelength 560 nm using a microplate reader (BMG Labtech/SPECTROstar Nano). The cell morphology images were captured by using a light microscope (Microscope Nikon, inverted digital) at 20X magnification prior to treating with MTT reagent.

MDA-MB-231 [6] = assay: MTT cytotoxicity, 48 h, without UVA; assay type: cell-based; conditions: Homo sapiens, MDA-MB-231, light or radiation study; for inhibition at 50 µg/mL: I = %inhibition lower than 50%, read-out: Cytotoxic activity MDA-MB-231 %Inhibition; for IC50: hormone-independent breast cancer, read-out: Cytotoxic activity MDA-MB-231 IC50
Method: (§3) MDA-MB-231 (triple-negative breast cancer) was obtained from M.D. Anderson Cancer Center, Houston, TX, USA). T47-D (hormone-dependent breast carcinoma), SK-BR-3 (human HER2+ breast cancer), and MRC-5 (normal embryonic lung fibroblast) were obtained from the American Type Culture Collection (ATCC, Manassas, VA, USA).
(§4) The cytotoxic effect of tested compounds was evaluated in two breast cancer cell lines, MDA-MB-231 and T47-D. Number of survival cells after exposure to tested compounds for 48 h was determined by MTT assay, as previously described.

[7] = Inhibition of superoxide radical formation by xanthine/xanthine oxidase (XXO); assay type: biochemical; conditions: read-out: XXO IC50
Text: 1. […]

T47-D = assay: MTT cytotoxicity, 48 h, without UVA; assay type: cell-based, human; conditions: for inhibition at 50 µg/mL / IC50: Homo sapiens, T47D, light or radiation study, 48 h, without UVA; for inhibition at 50 µg/mL: I = %inhibition lower than 50%, read-out: Cytotoxic activity T47-D %Inhibition; for IC50: hormone-dependent breast cancer, read-out: Cytotoxic activity T47-D IC50
Method: (§5) Additionally, the cytotoxicity towards normal cells, human embryonal lung fibroblast cell MRC-5 was also assessed.
as §3, §4

xanthine oxidase = xanthine oxidase (Homo sapiens, UniProt P47989); assay: Inhibition of xanthine oxidase (IXO); assay type: biochemical; conditions: screening concentration 500 µM; read-out: IXO %Inh
Sequence of xanthine oxidase (P47989 whole entry, species assumed): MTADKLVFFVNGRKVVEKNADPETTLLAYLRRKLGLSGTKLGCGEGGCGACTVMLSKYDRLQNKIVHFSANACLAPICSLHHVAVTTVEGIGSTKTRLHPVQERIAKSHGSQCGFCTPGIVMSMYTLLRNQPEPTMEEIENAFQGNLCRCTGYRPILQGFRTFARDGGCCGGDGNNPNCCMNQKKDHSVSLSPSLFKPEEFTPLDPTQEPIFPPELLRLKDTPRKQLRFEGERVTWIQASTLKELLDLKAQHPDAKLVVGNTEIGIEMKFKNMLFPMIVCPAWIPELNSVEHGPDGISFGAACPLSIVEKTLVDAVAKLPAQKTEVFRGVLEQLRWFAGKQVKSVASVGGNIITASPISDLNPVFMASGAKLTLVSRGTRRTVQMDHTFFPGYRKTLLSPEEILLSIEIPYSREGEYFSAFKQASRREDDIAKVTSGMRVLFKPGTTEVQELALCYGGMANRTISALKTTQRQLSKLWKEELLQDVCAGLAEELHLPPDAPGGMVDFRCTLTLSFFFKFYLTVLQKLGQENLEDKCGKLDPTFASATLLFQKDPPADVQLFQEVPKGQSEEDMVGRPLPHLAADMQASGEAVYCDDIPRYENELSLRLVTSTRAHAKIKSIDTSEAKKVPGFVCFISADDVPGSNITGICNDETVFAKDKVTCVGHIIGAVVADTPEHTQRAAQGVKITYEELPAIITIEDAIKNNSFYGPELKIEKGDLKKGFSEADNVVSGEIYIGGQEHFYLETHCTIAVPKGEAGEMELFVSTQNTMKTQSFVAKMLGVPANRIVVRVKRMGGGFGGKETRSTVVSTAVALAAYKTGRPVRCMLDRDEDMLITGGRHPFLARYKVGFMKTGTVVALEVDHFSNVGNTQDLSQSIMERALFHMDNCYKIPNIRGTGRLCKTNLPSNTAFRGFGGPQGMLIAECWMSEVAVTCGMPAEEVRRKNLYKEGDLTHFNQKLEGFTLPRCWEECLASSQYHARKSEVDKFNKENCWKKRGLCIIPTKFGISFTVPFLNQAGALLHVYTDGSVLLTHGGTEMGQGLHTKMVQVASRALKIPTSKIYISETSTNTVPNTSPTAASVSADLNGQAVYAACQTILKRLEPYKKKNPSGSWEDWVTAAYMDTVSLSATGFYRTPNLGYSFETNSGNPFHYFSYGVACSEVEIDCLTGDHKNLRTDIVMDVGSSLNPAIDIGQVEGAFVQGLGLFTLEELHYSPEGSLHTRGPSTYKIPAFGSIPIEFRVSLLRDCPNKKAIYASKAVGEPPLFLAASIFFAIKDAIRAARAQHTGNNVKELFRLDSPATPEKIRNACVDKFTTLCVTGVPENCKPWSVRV
Method: 1. […]
Inhibition of xanthine oxidase (IXO)
Xanthine oxidase activity was determined by quantifying the amount of uric acid produced
from xanthine. […]

aromatase (CYP19) = molecular target: T1, aromatase (CYP19) (Homo sapiens, UniProt P11511); assay: Inhibition of aromatase (AIA); assay type: biochemical; conditions: at 12.5 µM; I = %inhibition lower than 50%; read-out: Aromatase inhibitory activity %Inhibition
T1 sequence (P11511 1-503): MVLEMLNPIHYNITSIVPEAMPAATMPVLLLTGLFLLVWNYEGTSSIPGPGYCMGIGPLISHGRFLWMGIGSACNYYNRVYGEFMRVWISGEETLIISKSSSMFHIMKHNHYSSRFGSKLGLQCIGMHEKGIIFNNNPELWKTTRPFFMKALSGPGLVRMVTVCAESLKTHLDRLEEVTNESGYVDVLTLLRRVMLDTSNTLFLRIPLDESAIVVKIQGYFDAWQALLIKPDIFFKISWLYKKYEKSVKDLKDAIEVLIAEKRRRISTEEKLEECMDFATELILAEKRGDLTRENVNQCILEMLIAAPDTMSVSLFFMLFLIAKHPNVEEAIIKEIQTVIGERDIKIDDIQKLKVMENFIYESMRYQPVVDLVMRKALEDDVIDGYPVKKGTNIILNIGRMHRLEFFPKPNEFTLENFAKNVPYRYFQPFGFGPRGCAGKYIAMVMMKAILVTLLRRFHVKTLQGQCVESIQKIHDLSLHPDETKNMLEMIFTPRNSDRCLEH
Method: Estrogens are the critical risk factor for breast cancer initiation and progression and the aromatase enzyme involves in the final step conversion of androgens to estrogens[21],[22]. […] In this study, the synthesized psoralen derivatives were also tested for aromatase inhibitory activity (AIA) which is considered to be one of chemopreventive mechanisms for hormone dependent breast cancer.
Inhibition of the aromatase was performed using the method designed by Stresser et al.[39].

MDA-MB-231 [8] = assay: Dark and light-activated (UVA) cytotoxicity, MTT; assay type: cell-based; conditions: Homo sapiens, MDA-MB-231, light or radiation study; irradiation with UVA (2.0 J cm^−2); HER2− breast cancer
Method: as §1, §2

SK-BR-3 cells = assay: Cell morphology by light microscope; assay type: cell-based, human; conditions: 48 h
Method: as §2, with “After incubation, the cells were washed with PBS (3 times) and then irradiated by a 365 nm lamp with the light intensity of 2.0 J cm^−2 for 12.5 min before re-incubation for another 72 h.” left out

[9] = MTT cytotoxicity towards normal cells, 48 h; assay type: cell-based; conditions: MRC-5 cells (normal embryonic lung fibroblasts), human embryonal lung fibroblast cell, without UVA, read-out: Cytotoxic activity MRC-5 IC50
Method: as §5, §3, §4

MCF-7 = conditions: Fig. 1d; cited from earlier work
MDA-MB-231 [10] = system: MDA-MB-231; parameters: method as in doi:10.1007/s00044-014-1312-6; conditions: previously reported; cited from earlier work
[11] = system: ERα activity in MCF-7 cells; parameters: method as in PMID 31673107; conditions: read-out: IC50 antagonism of ERα activity in MCF-7 cells; cited from earlier work

melting point: 234 to 235 °C
IC50 [7]: 394 µM
inhibition at 500 µM (xanthine oxidase): 17%
inhibition at 12.5 µM (aromatase (CYP19)): 8%
SMILES: COc1c2occc2c(NC(=O)C(C)C)c2ccc(=O)oc12 [3k, N-(9-Methoxy-7-oxo-7H-furo[3,2-g]chromen-4-yl)isobutyramide]
IC50 (MDA-MB-231 [1]): > 100 µM
IC50 (SK-BR-3 [2]): > 100 µM
DPPH %Inh [3]: 2%
inhibition at 100 µM [4]: 11%
IC50 (SK-BR-3 [5]): 66.1 ± 5.21 µM
inhibition at 50 µg/mL (MDA-MB-231 [6]): 4%
inhibition at 50 µg/mL (T47-D): 36%
IC50 (MDA-MB-231 [8]): > 100 µM

melting point: 233 to 234 °C
IC50 [7]: 187 µM
inhibition at 500 µM (xanthine oxidase): 29%
inhibition at 12.5 µM (aromatase (CYP19)): 8%
SMILES: CCC(=O)Nc1c2ccoc2c(OC)c2oc(=O)ccc12 [3j, N-(9-Methoxy-7-oxo-7H-furo[3,2-g]chromen-4-yl)propionamide]
IC50 (MDA-MB-231 [1]): > 100 µM
IC50 (SK-BR-3 [2]): > 100 µM
DPPH %Inh [3]: 2%
inhibition at 100 µM [4]: 11%
IC50 (SK-BR-3 [5]): 3.05 ± 1.02 µM
inhibition at 50 µg/mL (MDA-MB-231 [6]): 3%
inhibition at 50 µg/mL (T47-D): 22%
morphology of SK-BR-3 cells under light activation (SK-BR-3 cells; UVA 2.0 J cm^−2): significantly changed
morphology of SK-BR-3 cells under dark condition (SK-BR-3 cells; dark): maintained morphology of intact cells
IC50 (MDA-MB-231 [8]): > 100 µM

SMILES: COc1cccc2c1C(=O)c1c(O)c3c(c(O)c1C2=O)C[C@@](O)(C(=O)CO)C[C@@H]3O[C@H]1C[C@H](N)[C@H](O)[C@H](C)O1 [Doxorubicin, reference compound]
IC50 (MDA-MB-231 [6]): 3.16 ± 0.26 µM
IC50 (T47-D): 1.46 ± 2.79 µM
Selectivity Index (SI) (T47-D; SI = IC50 for MRC-5/IC50 for T47-D): 2.1
IC50 at 48 h [9]: 3.07 ± 0.22 µM

SMILES: C=CCNc1c2ccoc2c(OC)c2oc(=O)ccc12 [Va]
IC50 (MCF-7): 3.87 µM
IC50 (MDA-MB-231 [10]): 5 µM

SMILES: O=c1ccc2cc3ccoc3c(O)c2o1 [xanthotoxol]
IC50 [11]: 0.7 µM

SMILES: COc1c2occc2c(NCc2ccccc2)c2ccc(=O)oc12 [Vb]
IC50 (MCF-7): 1.09 µM
IC50 (MDA-MB-231 [10]): 3 µM

SMILES: O=c1ccc2cc3ccoc3cc2o1 [psoralen]
IC50 [11]: 24.1 µM

SMILES: CC/C(=C(\c1ccccc1)c1ccc(OCCN(C)C)cc1)c1ccccc1 [Tamoxifen citrate, reference compound]
IC50 (MDA-MB-231 [6]): 66 ± 2.48 µM
IC50 (T47-D): 20.9 ± 1.31 µM
IC50 at 48 h [9]: 67.6 ± 10.5 µM
